From article PMC9036659, “Boron-containing capsaicinoids” (RSC Advances, 2021)

Experiments:
[1] = system: Pseudomonas aeruginosa (ATCC 14210); assay: Antimicrobial assay, P. aeruginosa (OD600); format: cell-based
Experimental: (§1) The microorganisms (methicillin-resistant S. aureus MRSA 310, vancomycin-resistant E. faecium VRE 379, S. warneri (ATCC 17917), P. vulgaris (ATCC 12454), P. aeruginosa (ATCC 14210), and C. albicans (ATCC 14035)) were grown overnight on agar media. The following day the cultures were transferred into 0.9% saline water into a sterile glass tube. Using the McFarland reader, the turbidity was determined and further diluted into their respective media. The pure compounds were tested at seven different concentrations ranging from 2 to 128 μg mL^−1 in triplicate. Samples were plated into 96 well plates (10 μL in 20% DMSO) and then diluted pathogen (90 μL) was pipetted into the pre-prepared sample plates yielding 5 × 10^5 cfu mL^−1 with a final volume of 100 μL. Antibiotics that are active against specific pathogens were used as positive controls. The plates were incubated into a 37 °C incubator for 22 h. Growth of S. warneri. P. vulgaris, P. aeruginosa and C. albicans were measured by reading optical density (OD600), or in the case of slow growing microorganisms (MRSA and VRE), PrestoBlue was used to assess metabolic activity by measuring fluorescence (535–560)/(590–615) (excitation/emission) using a Thermo Scientific Varioskan Flash plate reader at time zero and then again after incubation of the plates for 22 h at 37 °C. After subtracting the time zero OD600 from the final reading, the percentages of microorganism survival relative to vehicle control wells were calculated. […]
(§2) Antimicrobial Assay Data Growth of S. warneri. P. vulgaris, P. aeruginosa and C. albicans were measured by reading optical density (OD600), or in the case of slow growing microorganisms (MRSA and VRE), PrestoBlue was used to assess metabolic activity by measuring fluorescence (535-560)⁄(590-615) (excitation/emission) using a Thermo Scientific Varioskan Flash plate reader at time zero and then again after incubation of the plates for 22 h at 37 °C. After subtracting the time zero OD600 from the final reading, the percentages of microorganism survival relative to vehicle control wells were calculated. […]

[2] = system: methicillin-resistant Staphylococcus aureus MRSA 310; assay: Antimicrobial assay, MRSA (PrestoBlue fluorescence); format: cell-based
Experimental: as §1, §2

[3] = system: Candida albicans (ATCC 14035); assay: Antimicrobial assay, C. albicans (OD600); format: cell-based
Experimental: as §1, §2

[4] = system: green monkey kidney cells Vero (ATCC CCL-81); assay: Cytotoxicity assay (Alamar blue), Vero; format: cell-based
Experimental: (§3) The cells (human foreskin BJ fibroblast cells (ATCC CRL-2522), green monkey kidney cells Vero (ATCC CCL-81), human breast adenocarcinoma cells (ATCC HTB-26 MDA-MB 231), human breast adenocarcinoma cells (MCF7 ATCC HTB-22), and human colorectal carcinoma cells (HCT116 ATCC CCL-247)) were grown to 80% confluency, the cells were counted, diluted, and plated into treated 96-well cell culture plates. The BJ fibroblast and Vero cells were plated at a cell density of 10 000 cells per well and the HTB26, HCT116 and MCF7 cells were plated at cell density of 5000 cells per well in 90 μL of respective growth medium (without the addition of antibiotics) and incubated for 24 h to allow cells to adhere to the plates before treatment. Pure compounds were tested in triplicate in serial dilutions of seven concentrations ranging from 2 to 128 μg mL^−1 per well (final well volume of 100 μL, 1% DMSO per well). Each of the cell lines were incubated at 37 °C in a humidified atmosphere of 5% CO2; the BJ fibroblast and Vero cells for 24 h and the HTB-26, HCT116 and MCF7 cells for 72 h. Each plate contained four uninoculated positive controls, four untreated negative controls, and one column containing a concentration range for doxorubicin. Alamar blue was added, 24 h after the treatment, and fluorescence was monitored using a Cytation Gen 5 plate reader using 560 nm Ex/590 Em both at time zero and 4 h after Alamar blue addition. The inferred percentage of cell viability relative to vehicle control wells were calculated after subtracting the time zero emission 590 nm measurement from the final reading and the IC50 was determined. […]
(§4) Cytotoxicity Assay Data Alamar blue was added, 24 h after the treatment, and fluorescence was monitored using a Cytation Gen 5 plate reader using 560 nm Ex/590 Em both at time zero and 4 h after Alamar blue addition. The inferred percentage of cell viability relative to vehicle control wells were calculated after subtracting the time zero emission 590 nm measurement from the final reading and the IC50 was determined.

[5] = system: human breast adenocarcinoma cells (MCF7 ATCC HTB-22); assay: Cytotoxicity assay (Alamar blue), MCF7; format: cell-based
Experimental: as §3, §4

[6] = system: human foreskin BJ fibroblast cells (ATCC CRL-2522); assay: Cytotoxicity assay (Alamar blue), BJ; format: cell-based
Experimental: as §3, §4

[7] = system: Staphylococcus warneri (ATCC 17917); assay: Antimicrobial assay, S. warneri (OD600); format: cell-based
Experimental: as §1, §2

[8] = system: human colorectal carcinoma cells (HCT116 ATCC CCL-247); assay: Cytotoxicity assay (Alamar blue), HCT116; format: cell-based; conditions: for IC50: Homo sapiens, HCT-116, 72 h incubation, average ± SD, Inactive = inhibition above 300 μM, read-out: IC50 HCT (cancer cell line)
Experimental: as §3, §4

[9] = system: vancomycin-resistant Enterococcus faecium VRE 379; assay: Antimicrobial assay, VRE (PrestoBlue fluorescence); format: cell-based
Experimental: as §1, §2

[10] = system: human breast adenocarcinoma cells (ATCC HTB-26 MDA-MB 231); assay: Cytotoxicity assay (Alamar blue), HTB-26; format: cell-based; conditions: for IC50: Homo sapiens, HTB26, 72 h incubation, average ± SD, Inactive = inhibition above 300 μM, read-out: IC50 HTB (cancer cell line)
Experimental: as §3, §4

[11] = system: Proteus vulgaris (ATCC 12454); assay: Antimicrobial assay, P. vulgaris (OD600); format: cell-based
Experimental: as §1, §2

[12] = 24 h incubation, average ± SD, Inactive = inhibition above 300 μM

Row | Structure (SMILES) | antimicrobial activity against P. aeruginosa (in words) [1] | antimicrobial activity against MRSA (in words) [2] | antimicrobial activity against C. albicans (in words) [3] | cytotoxic activity against Vero (in words) [4] | IC50 ([4]; Chlorocebus sabaeus, Vero, 24 h incubation, average ± SD, Inactive = inhibition above 300 μM, read-out: IC50 Vero (normal cell line)) [µM] | melting point [°C] | cytotoxic activity against MCF7 (in words) [5] | IC50 ([5]; Homo sapiens, MCF7, 72 h incubation, average ± SD, Inactive = inhibition above 300 μM, read-out: IC50 MCF7 (cancer cell line)) [µM] | cytotoxic activity against BJ (in words) [6] | IC50 ([6]; Homo sapiens, Fibroblast, 24 h incubation, average ± SD, Inactive = inhibition above 300 μM, read-out: IC50 BJ (normal cell line)) [µM] | antimicrobial activity against S. warneri (in words) [7] | cytotoxic activity against HCT116 (in words) [8] | IC50 [8] [µM] | antimicrobial activity against VRE (in words) [9] | cytotoxic activity against HTB-26 MDA-MB 231 (in words) [10] | IC50 [10] [µM] | antimicrobial activity against P. vulgaris (in words) [11] | IC50 Vero (normal cell line) [4, 12] | IC50 MCF7 (cancer cell line) ([5]; 72 h incubation, average ± SD, Inactive = inhibition above 300 μM) | IC50 BJ (normal cell line) [6, 12]
1 | CCCCCCCCCC(=O)N(Cc1ccc(OC)c(OC)c1)c1ccc(B2OC(C)(C)C(C)(C)O2)cc1 [Compound 24, N-(3,4-dimethoxyphenylmethyl)-N-[4-(4,4,5,5-tetramethyl-1,3,2-dioxaborolan-2-yl)phenyl]-decanamide] | inactive | inactive | inactive | unselective cytotoxic effects | 26.9 ± 4.4 | 58.1 to 59.8 | unselective cytotoxic effects | 24.1 ± 3.8 | unselective cytotoxic effects | 36.1 ± 0.8 | inactive | unselective cytotoxic effects | 33.8 ± 2.1 | inactive | unselective cytotoxic effects | 25.2 ± 1.3 | inactive | – | – | –
2 | CCCCCC(=O)N(Cc1ccc(OC)c(OC)c1)c1ccc(B2OC(C)(C)C(C)(C)O2)cc1 [Compound 23, N-(3,4-dimethoxyphenylmethyl)-N-[4-(4,4,5,5-tetramethyl-1,3,2-dioxaborolan-2-yl)phenyl]-hexanamide] | inactive | inactive | inactive | – | – | 51.5 to 53.5 | selective but low to moderate activity | – | – | – | inactive | selective but low to moderate activity | 118 ± 4.9 | inactive | selective but low to moderate activity | 85.8 ± 7.1 | inactive | Inactive | Inactive | Inactive
